Test results published in patent publication US20110190235A1, “BORON-CONTAINING SMALL MOLECULES AS ANTIPROTOZOAL AGENTS” (Anacor Pharmaceuticals, Inc., priority 2009, published 2011).
Read-outs that look alike come from different tables or passages of the source.

What was measured:
[1] = tested on: bloodstream-form trypanosome T. brucei brucei 427 strain; test: Trypanosoma brucei brucei high-throughput in vitro drug sensitivity assay (resazurin); format: cell-based; details: Trypanosoma brucei, 72 h
[2] = Pharmacokinetic studies in mice (plasma, brain); format: in vivo; details: for Cmax: normalized to 25 mg/kg (nominal 25 mg/kg); for AUC(0-t) / AUC(0-inf): normalized to 25 mg/kg; for AUC(0-t): read-out: Exposure/trapezoid AUC0-18; for AUC(0-inf): read-out: Exposure/trapezoid AUC0-inf
Protocol: Male CD-1 mice weighing approximately 25 g received the test article (E19 or 82 or E14 or 69) by either intravenous (IV), oral gavage (OG) or intra-peritoneal (IP) routes. Animals in IV group (6-10 animals, 1-2 per time point) received a single bolus injection of approximately 2 mg/kg of the test article. Animals receiving […], or as 4 repeat doses ([…], 1-2 per time point).
All doses were administered as clear colorless solutions in either: 50% (v/v) PEG400:20% (v/v) ethanol:30% (v/v) carboxymethylcellulose (0.5% w/v in sterile water for injection, WFI), or as in situ sodium salts in 5% (m/v) dextrose:2% (v/v) ethanol in DWI. All dose solutions were delivered at 4 mL/kg. Animals were fasted for at least 4 hours before dosing, and for 2 hours after dosing.
Blood samples and brain tissue were sampled from 1 or 2 animals/timepoint/group immediately before dosing and approximately 0.17, 0.5, 1, 2, 3, 4, 6, 8, 12, 18 and 24 hr after dosing for full pharmacokinetic and tissue analysis, or at 0.5, 2 and 4 hours post dosing to assess early-phase CNS disposition.
Bioanalysis for test article in whole blood, plasma or brain tissue was performed by HPLC with tandem mass spectrometry (LC-MSMS). Whole blood and plasma samples were treated with 3 volumes of either acetonitrile or methanol to precipitate plasma proteins. Treated samples were centrifuged and supernatants removed for analysis. Brain tissues were weighed and homogenized mechanically in the presence of 1 volume of phosphate-buffered saline (PBS). The resulting tissue suspensions were then diluted with a further volume of PBS, and then treated in the same manner as whole blood or plasma.
Extracted samples were assayed for test article by means of LC-MSMS employing reversed-phase chromatography coupled to a triple quadrupole mass spectrometer employing electrospray ionization in the positive ion mode. The analytical column was a Phenomenex Luna 3μ C8 50×2 mm, with an online sample purification step performed on a Phenomenex Synergi 4μ Polar RP 50×2 mm column.
Test articles were eluted using a binary mobile phase gradient comprising 5 mM Ammonium Acetate: 0.1% formic acid in either MeOH or H2O.
Non-compartmental analysis of plasma test article concentration versus time was performed in Microsoft Excel to generate pharmacokinetic parameters including: area under the curve (AUC), clearance (as Cl or Cl/F), volume of distribution (Vdss), half-life (t½), and bioavailability (F).

[3] = male, CD-1, mouse, brain, oral, mice
[4] = male, CD-1, mouse, plasma, oral, mice

CC1(C)OB(O)c2cc(NC(=O)c3ccc(F)cc3C(F)(F)F)ccc21 [compound 82]
IC50 ([1]; read-out: T. b. brucei IC50 (nM)): 556 nM
IC50 ([1]; read-out: T.b. brucei IC50 (ug/mL)): 0.204 µg/mL
CL/F ([2]; male, CD-1, mouse, 25 mg/kg, plasma, oral, mice, read-out: Oral Clearance Cl/F (converted)): 3.27 mL/min/kg
half-life ([2]; male, CD-1, mouse, 25 mg/kg, plasma, oral, mice, read-out: t½ (converted)): 6.9 h
Cmax [2, 3]: 7700 ng/mL
AUC(0-t) [2, 3]: 64900 ng·h/mL
AUC(0-inf) [2, 3]: 65500 ng·h/mL
Cmax [2, 4]: 9400 ng/mL
AUC(0-t) [2, 4]: 108000 ng·h/mL
AUC(0-inf) [2, 4]: 128000 ng·h/mL
brain concentrations relative to the MIC ([2]; mouse and rat, brain (and CSF)): maintains concentrations above the MIC for extended time periods
fold improved exposure in brain tissue over E19 ([2]; mouse, in vivo): 6-12 fold
Fold improvement 82 vs. E19: Oral Clearance Cl/F ([2]; mouse, in vivo, po): 1.2 fold
Fold improvement 82 vs. E19: t½ ([2]; mouse, in vivo, po): 0.4 fold
fold improved plasma exposure (based on AUC) over E19 ([2]; mouse, in vivo, po): 2-4 fold
Fold improvement 82 vs. E19: Cmax ([2]; mouse, in vivo, po, brain): 1.6 fold
Fold improvement 82 vs. E19: Cmax ([2]; mouse, in vivo, po, plasma): 1.2 fold
dose proportionality of brain exposure ([2]; oral delivery to mice): generally dose-proportional increases
dose proportionality of plasma exposure ([2]; oral delivery to mice): greater than proportional at doses above 20 mg/kg
F (% of IV) ([2]; plasma, oral, mice): 45%
plasma PK when administered to rodents ([2]; rodents, plasma): good exposure (AUC and Cmax), promising bioavailability, prolonged half-life, and low clearance
